pEC50: −log10 of the molar value.
Molecular target: T1, ΔF508-CFTR (Homo sapiens, UniProt P13569, DEL508-508)
T1 construct: expressed in transfected cells
Experiment: Membrane potential optical assay for potentiators of ΔF508-CFTR (FLIPR III, voltage sensing dyes)
Format: cell-based
Conditions: for Emax: NIH3T3, 100% efficacy is the maximum response obtained with 4-methyl-2-(5-phenyl-1H-pyrazol-3-yl)phenol, ΔF508 CFTR NIH 3T3 cells; for pEC50: temperature-corrected ΔF508 CFTR NIH 3T3 cells, forskolin activation
From the text: The assay utilizes fluorescent voltage sensing dyes to measure changes in membrane potential using a fluorescent plate reader (e.g., FLIPR III, Molecular Devices, Inc.) as a readout for increase in functional ΔF508-CFTR in NIH 3T3 cells.
To identify potentiators of ΔF508-CFTR, a double-addition HTS assay format was developed. This HTS assay utilizes fluorescent voltage sensing dyes to measure changes in membrane potential on the FLIPR III as a measurement for increase in gating (conductance) of ΔF508 CFTR in temperature-corrected ΔF508 CFTR NIH 3T3 cells.
Solutions • Bath Solution #1: (in mM) NaCl 160, KCl 4.5, CaCl2 2, MgCl2 1, HEPES 10, pH 7.4 with NaOH. • Chloride-Free Bath Solution: Chloride Salts in Bath Solution #1 are Substituted with Gluconate Salts.
NIH3T3 mouse fibroblasts stably expressing ΔF508-CFTR are used for optical measurements of membrane potential. The cells are maintained at 37° C. in 5% CO2 and 90% humidity in Dulbecco's modified Eagle's medium supplemented with 2 mM glutamine, 10% fetal bovine serum, 1×NEAA, β-ME, 1×pen/strep, and 25 mM HEPES in 175 cm^2 culture flasks. For all optical assays, the cells were seeded at ˜20,000/well in 384-well matrigel-coated plates and cultured for 2 hrs at 37° C. before culturing at 27° C. for 24 hrs. for the potentiator assay. For the correction assays, the cells are cultured at 27° C. or 37° C. with and without compounds for 16-24 hours. Electrophysiological Assays for assaying ΔF508-CFTR modulation properties of compounds.

T1 sequence (P13569 with tags, fused parts or gaps DEL508-508): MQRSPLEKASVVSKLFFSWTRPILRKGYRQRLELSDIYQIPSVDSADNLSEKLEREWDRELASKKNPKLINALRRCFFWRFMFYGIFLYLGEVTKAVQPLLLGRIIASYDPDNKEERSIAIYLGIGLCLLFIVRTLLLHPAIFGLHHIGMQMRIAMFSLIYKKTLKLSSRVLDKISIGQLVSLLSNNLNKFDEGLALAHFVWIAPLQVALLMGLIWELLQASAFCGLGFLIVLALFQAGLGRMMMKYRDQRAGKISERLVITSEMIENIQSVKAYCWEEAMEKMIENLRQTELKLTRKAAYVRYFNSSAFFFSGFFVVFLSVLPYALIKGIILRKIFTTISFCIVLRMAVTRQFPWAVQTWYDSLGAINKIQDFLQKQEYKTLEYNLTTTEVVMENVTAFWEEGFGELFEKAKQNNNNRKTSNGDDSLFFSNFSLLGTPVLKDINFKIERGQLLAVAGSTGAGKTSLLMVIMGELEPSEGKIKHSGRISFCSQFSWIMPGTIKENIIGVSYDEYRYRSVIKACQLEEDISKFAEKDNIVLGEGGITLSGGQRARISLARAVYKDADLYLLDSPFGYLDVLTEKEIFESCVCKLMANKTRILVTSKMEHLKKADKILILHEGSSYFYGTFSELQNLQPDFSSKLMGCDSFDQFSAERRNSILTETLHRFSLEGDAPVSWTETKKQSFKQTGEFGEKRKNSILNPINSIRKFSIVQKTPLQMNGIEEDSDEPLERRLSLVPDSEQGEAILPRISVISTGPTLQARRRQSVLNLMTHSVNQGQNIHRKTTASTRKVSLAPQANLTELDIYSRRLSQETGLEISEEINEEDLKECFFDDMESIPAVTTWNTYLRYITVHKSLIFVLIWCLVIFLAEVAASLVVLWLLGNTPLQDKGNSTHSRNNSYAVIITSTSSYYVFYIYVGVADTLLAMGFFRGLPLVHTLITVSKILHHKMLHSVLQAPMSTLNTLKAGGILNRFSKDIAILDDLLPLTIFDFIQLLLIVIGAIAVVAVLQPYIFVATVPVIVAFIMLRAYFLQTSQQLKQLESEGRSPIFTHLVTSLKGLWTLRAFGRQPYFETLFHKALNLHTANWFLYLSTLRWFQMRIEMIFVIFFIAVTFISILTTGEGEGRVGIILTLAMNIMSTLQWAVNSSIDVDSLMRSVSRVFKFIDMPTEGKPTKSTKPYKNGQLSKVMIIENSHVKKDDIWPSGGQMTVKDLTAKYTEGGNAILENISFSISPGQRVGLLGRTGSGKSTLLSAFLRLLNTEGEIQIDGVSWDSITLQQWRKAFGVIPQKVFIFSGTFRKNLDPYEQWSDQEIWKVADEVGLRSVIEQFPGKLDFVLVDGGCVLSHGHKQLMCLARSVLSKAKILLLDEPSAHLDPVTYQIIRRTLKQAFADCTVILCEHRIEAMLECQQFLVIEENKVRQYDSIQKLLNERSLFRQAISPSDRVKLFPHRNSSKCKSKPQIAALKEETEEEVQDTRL

Row | Compound | Emax | pEC50
1 | Cc1ccc(NC(=O)C2CNc3cc(OC(F)(F)F)ccc3O2)c(C#CCN2CCC(F)(F)CC2)c1 (stereo not shown) [Compound 9] | 25 to 100% | > 5.30
2 | C[C@H]1CCCN1c1ccc(NC(=O)C2CNc3ccccc3O2)c(C(F)(F)F)c1 (stereo partly shown) [Compound 89] | 25 to 100% | > 5.30
3 | CN1CCC(c2cc(C3CCCC3)c(O)cc2NC(=O)C2CNc3cc(C#N)ccc3O2)CC1 (stereo not shown) [Compound 111, 6-cyano-N-(4-cyclopentyl-5-hydroxy-2-(1-methylpiperidin-4-yl)phenyl)-3,4-dihydro-2H-benzo[b][1,4]oxazine-2-carboxamide] | < 25% | 4.70 to 5.30
4 | O=C(Nc1ccc(C2CC2)c(O)c1)C1CNc2ccccc2O1 (stereo not shown) [Compound 27] | 25 to 100% | > 5.30
5 | COc1cc(NC(=O)C2CNc3cc(OC(F)(F)F)ccc3O2)c(C#CCN(C)C)cc1C1CCCC1 (stereo not shown) [Compound 95] | > 100% | > 5.30
6 | CC(C)(C)c1cc(C(C)(C)C)c(NC(=O)C2CNc3ccccc3O2)cc1O (stereo not shown) [Compound 90] | 25 to 100% | > 5.30
7 | O=C(O)Cc1cc(C2CCCC2)c(O)cc1NC(=O)C1CNc2cc(OC(F)(F)F)ccc2O1 (stereo not shown) [Compound 24] | > 100% | > 5.30
8 | CCc1cc(CN2CCC(C)CC2)c(NC(=O)C2CNc3cc(OC(F)(F)F)ccc3O2)cc1O (stereo not shown) [Compound 118] | > 100% | > 5.30
9 | Cc1ccc(NC(=O)C2CNc3cc(OC(F)(F)F)ccc3O2)c(CCCN(C)C)c1 (stereo not shown) [Compound 81] | 25 to 100% | 4.70 to 5.30
10 | Cc1ccc(NC(=O)C2CNc3cc(OC(F)(F)F)ccc3O2)c(C#CCN2CCCCC2)c1 (stereo not shown) [Compound 71] | 25 to 100% | > 5.30
11 | CC1(c2cc(F)c(NC(=O)C3CNc4cc(F)ccc4O3)cc2O)CCCCC1 (stereo not shown) [Compound 18] | 25 to 100% | > 5.30
12 | Cc1cccc2c1OC(C(=O)Nc1ccc(C(C)(C)C)c(O)c1)CN2 (stereo not shown) [Compound 107] | 25 to 100% | > 5.30
13 | CC(C)Oc1ccc(NC(=O)C2CNc3ccc(F)cc3O2)cc1O (stereo not shown) [Compound 42] | < 25% | 4.70 to 5.30
14 | N#Cc1cc(C2CCCC2)c(O)cc1NC(=O)[C@H]1CNc2ccc(F)cc2O1 [Compound 17] | 25 to 100% | > 5.30
15 | CN(C)CCCc1cc(C2CCCC2)c(O)cc1NC(=O)C1CNc2cc(OC(F)(F)F)ccc2O1 (stereo not shown) [Compound 38, N-(4-cyclopentyl-2-(3-(dimethylamino)propyl)-5-hydroxyphenyl)-6-(trifluoromethoxy)-3,4-dihydro-2H-benzo[b][1,4]oxazine-2-carboxamide] | 25 to 100% | > 5.30
16 | CNCC#Cc1cc(C2CCCC2)c(O)cc1NC(=O)C1CNc2cc(OC(F)(F)F)ccc2O1 (stereo not shown) [Compound 98, N-(4-cyclopentyl-5-hydroxy-2-(3-(methylamino)prop-1-ynyl)phenyl)-6-(trifluoromethoxy)-3,4-dihydro-2H-benzo[b][1,4]oxazine-2-carboxamide] | 25 to 100% | > 5.30
17 | COC(=O)Cc1cc(C2CCCC2)c(O)cc1NC(=O)C1CNc2cc(OC(F)(F)F)ccc2O1 (stereo not shown) [Compound 75] | > 100% | > 5.30
18 | CC1CCN(Cc2cc(C3CCCC3)c(O)cc2NC(=O)C2CNc3cc(OC(F)(F)F)ccc3O2)CC1 (stereo not shown) [Compound 117] | > 100% | > 5.30
19 | Cc1cc2c(cc1F)NCC(C(=O)Nc1cc(O)c(C(C)(C)C)cc1C(C)(C)C)O2 (stereo not shown) [Compound 6] | 25 to 100% | > 5.30
20 | CC(C)(C)c1cc(C2CCCC2)c(O)cc1NC(=O)C1CNc2cc(C#N)ccc2O1 (stereo not shown) [Compound 87] | 25 to 100% | > 5.30
21 | CC(C)(C)c1cc(C(C)(C)C)c(NC(=O)C2CNc3cc(F)c(F)cc3O2)cc1O (stereo not shown) [Compound 8] | 25 to 100% | > 5.30
22 | Cc1cc(C#CC(=O)O)c(NC(=O)C2CNc3cc(OC(F)(F)F)ccc3O2)cc1O (stereo not shown) [Compound 96] | 25 to 100% | > 5.30
23 | CC1(c2cc(F)c(NC(=O)C3CNc4cc(OC(F)(F)F)ccc4O3)cc2O)CCCCC1 (stereo not shown) [Compound 108] | 25 to 100% | > 5.30
24 | CC1(C(=O)Nc2cc(O)c(C3CCCC3)cc2C(F)(F)F)CNc2cc(OC(F)(F)F)ccc2O1 (stereo not shown) [Compound 128] | 25 to 100% | > 5.30
25 | CN1CCN(c2cc(C3CCCC3)c(O)cc2NC(=O)C2CNc3cc(C#N)ccc3O2)CC1 (stereo not shown) [Compound 29] | < 25% | 4.70 to 5.30
26 | CN(C)CC#Cc1cc(C2CCCC2)c(O)cc1NC(=O)[C@H]1CNc2cc(OC(F)(F)F)ccc2O1 [Compound 58] | > 100% | > 5.30
27 | O=C(Nc1cc(O)c(C2CCCC2)cc1C#CCN1CCCC1)C1CNc2cc(OC(F)(F)F)ccc2O1 (stereo not shown) [Compound 22] | > 100% | > 5.30
28 | O=C(Nc1ccc(C(F)(F)F)c(O)c1)C1CNc2ccccc2O1 (stereo not shown) [Compound 5] | < 25% | 4.70 to 5.30
29 | N#Cc1ccc2c(c1)NCC(C(=O)Nc1cc(O)c(C3CCCC3)cc1C(F)(F)F)O2 (stereo not shown) [Compound 39] | 25 to 100% | > 5.30

Reference: patent US8999976B2, “Modulators of cystic fibrosis transmembrane conductance regulator” (Vertex Pharmaceuticals Incorporated, priority 2008, dated 2015)
